The results in this text go back to patent US8999930B2, “Soluble hydrophobic core carrier compositions for delivery of therapeutic agents, methods of making and using the same” (PharmaIN Corporation, priority 2008, dated 2015).

A short description of the assay: Binding of load molecules to 20PLPEG555C18 carrier (100 kDa filtration, free load by HPLC, Scatchard plot). As to conditions: for binding affinity to carrier, in words: strong = Kd less than 100 uM, carrier 20 kDa polylysine, 55% 5 kDa MPEGsuccinate, remainder stearic acid.
Setting [1] is: Kd to the 20PLPRG555C18, Table 4, read-out: Dissociation Constant (Kd).

pKd: −log10 of the molar value. Like-named read-outs stand apart in the source and are kept apart here. Where a SMILES comes first, the peptide text is derived from it. Bridges are numbered along the chain shown (N, C = ends).

Procedure: Load molecules of various concentrations were added to the tubes so that the corresponding weight of load molecules will be between 2 to 30% of the weight of the carrier. To each tube, 25 ul of 10× Phosphate buffered saline was added and the total volume of the solution was made up to 250 ul. The solutions were incubated for 2 hours, followed by filtration through a 100 kDa molecular weight cut-off filter made up of regenerated cellulose (Microcon Ultracell YM-100; Millipore, Bedford, Mass.). The free unbound load molecules in the filtrate were analyzed by reverse phase HPLC using the conditions described above to generate Table 3. The total amount of load molecule loaded or the control is represented by the filtrate of the solution without the carrier. The amount of load molecules bound to the carrier is represented by the difference in the amount of load molecules between the filtrate without the carrier and the filtrate with the carrier. Prior to this analysis, the background filter binding was determined and accounted for whenever significant filter binding was found.

One may read the pKd as −log10 of the Kd, conventionally taken in molar units. “Islet Amyloid Polypeptide: Islet Amyloid Polypeptide (IAPP or Amylin; 3.6 kDa), load molecule (KCNTATCATQRLANFLVHSSNNFGAILSSTNVGSNTY; Islet amyloid polypeptide; UniProt P10997 34-70, looked up)”: the “binding affinity to carrier, in words” value is reported as “binds IAPP with strong affinity”. Moreover, the pKd under setting [1] was greater than 3.05. The pKd (Ten mg/ml (30 uM) of Carrier, read-out: Kd (Scatchard plot)) was 6.05.
On to “Human Growth Hormone: recombinant human growth hormone (26 kDa), load molecule”, for which the “binding affinity to carrier, in words” value is recorded as “does not bind hGH with strong affinity”. Besides, under setting [1], the pKd is less than 4.00.
For the molecule Leptin: Leptin (16 kDa), load molecule, the “binding affinity to carrier, in words” value is on record as “binds Leptin with strong affinity”. For the same molecule, the pKd (33 mg/ml (10 uM) of Carrier, read-out: Kd (Scatchard plot)) was 6.15. For the same molecule, the pKd under setting [1] was greater than 6.10.
Consider `NCCCC[C@H](NC(=O)[C@@H]1CCCN1C(=O)[C@@H]1CSSC[C@H](NC(=O)CNC(=O)CNC(=O)CN)C(=O)N[C@@H](Cc2ccc(O)cc2)C(=O)N[C@@H](Cc2ccccc2)C(=O)N[C@@H](CCC(N)=O)C(=O)N[C@@H](CC(N)=O)C(=O)N1)C(=O)NCC(N)=O` [Terlipressin, reference compound] (H-GGGCYFQNCPKG-NH2; disulfide 4-9), for which the “binding affinity to carrier, in words” value is given as “does not bind Terlipressin with strong affinity”. Also, the pKd under setting [1] is less than 4.00.
“Vasoactive Intestinal Peptide: Vasoactive Intestinal Peptide (VIP), load molecule”: the “binding affinity to carrier, in words” value is reported as “high affinity”. The “binding affinity to carrier, in words” value (listed as VIP) was “binds VIP with strong affinity”.
Take `COc1cccc2c1C(=O)c1c(O)c3c(c(O)c1C2=O)C[C@@](O)(C(=O)CO)C[C@@H]3O[C@H]1C[C@H](N)[C@H](O)[C@H](C)O1` [Doxorubicin, reference compound]: the “binding affinity to carrier, in words” value is listed as “did not bind with strong affinity”. Also, the pKd under setting [1] was less than 4.00. The pKd (Ten mg/ml (30 uM) of Carrier loaded with various concentration of doxorubicin, read-out: apparent Kd (Scatchard plot)) was 3.50.
For “Glucagon Like Peptide 2: Glucagon Like Peptide 2 (GLP-2; 3 kDa), load molecule”, under setting [1], the pKd was greater than 6.30.
